Patent US9895363B2, “Methods for modulating function of proliferating cell nuclear antigen (PCNA) and treating cancer with PCNA-targeting compounds” (University of Cincinnati, priority 2010, dated 2018)
Where two headings read alike, the source gives them in different places.

Experiments:
[1] = tested on: PC-3 cells; assay: MTT assay, PCNA-I1 and cisplatin alone or combined, PC-3; format: cell-based, Human; settings: Homo sapiens
Protocol: LNCaP or PC-3 cells were treated with a variety of concentrations of PCNA-I1 (0.1-10 μM) or cisplatin (0.1-10 μM) alone, or with a variety of concentrations of a combination of PCNA-I1 (0.1-10 μM) and cisplatin (0.1-10 μM) for four days. MTT assays were performed and IC50 values for PCNA-I1 and cisplatin were determined.

[2] = tested on: B16 melanoma cells; assay: Growth inhibition by MTT staining, B16; format: cell-based; settings: B16, 96 h, Mouse, treated four days
Protocol: (§1) Growth inhibitory effects of PCNA-I1 and PCNA-I2 were assessed in human cancer cell lines, mouse cancer cell lines, immortalized mouse cell lines, and human primary cell lines. Specifically, growth inhibitory effects of PCNA-I1 and PCNA-I2 were assessed using MTT staining in the following cells lines: 1) human cancer cell lines including LNCaP (androgen receptor […]), 22Rv1, DU-145, LAPC-4, and PC-3 (androgen receptor […]) prostate cancer cells; MCF-7 and T47D breast cancer cells; A375 and MDA-MB435 melanoma cells; 2) mouse cancer cell lines including TRAMP-C2RE3 prostate cancer cells, B16 and K1735 melanoma cells, UV2237 fibrosarcoma cells, and CT-26 colon cancer cells; 3) immortalized mouse lung cell lines and mouse endothelial cell lines; and 4) primary human cell lines including umbilical endothelial cells (HUVEC, PromoCell, Heidelberg, Germany), primary bone marrow mesenchymal stem cells (HuMSC, PromoCell), primary human mammary epithelial cells (HuBrEC, Lonza, Walkersville, Md.), primary human prostate epithelial cells (HuPrEC, Lonza), and primary mouse spleen lymphocytes (isolated in this laboratory), and primary mouse bone marrow stromal cells (isolated in this laboratory). […]
(§2) IC50 values were derived from growth inhibition curves. […] Inhibition of cell growth was calculated using the formula: growth inhibition (%)=(1−A570 of treated/A570 of control)×100. […]

[3] = tested on: LNCaP cells; assay: LNCaP tumor model in male nude mice; format: in vivo
Protocol: The therapeutic effects of PCNA-I1 were evaluated in LNCaP cells and 22Rv1 tumor models. LNCaP or 22Rv1 cells (1-2×10^6 cells in gelfoam) were implanted into the subcutis of male nude mice. From four to five days later, tumor-bearing mice were intraperitoneally injected with 10 mg/kg or 50 mg/kg of PCNA-I1. The therapy was continued at three times/week until termination of experiments. Control and treated tumor-bearing mice were monitored daily. Mouse body weight was recorded for toxicity evaluation twice a week and tumor size was measured using calipers twice a week. The experiments were terminated when mice in control groups were moribund. Additionally, to further evaluate potential liver and renal toxicity of PCNA-I1, the blood of tumor-bearing mice were sampled after the treatment with PCNA-I1 for 8 weeks.

[4] = tested on: Lung Endothelial Cells (immortal) (Mu-Lu-Endo); assay: Growth inhibition, mouse lung endothelial cells; format: cell-based; settings: for IC50: Endothelial cell
Protocol: (§3) Growth inhibitory effects of PCNA-I1 and PCNA-I2 were assessed in human cancer cell lines, mouse cancer cell lines, immortalized mouse cell lines, and human primary cell lines. Specifically, growth inhibitory effects of PCNA-I1 and PCNA-I2 were assessed using MTT staining in the following cells lines: 1) human cancer cell lines including LNCaP (androgen receptor […]), 22Rv1, DU-145, LAPC-4, and PC-3 (androgen receptor […]) prostate cancer cells; MCF-7 and T47D breast cancer cells; A375 and MDA-MB435 melanoma cells; 2) mouse cancer cell lines including TRAMP-C2RE3 prostate cancer cells, B16 and K1735 melanoma cells, UV2237 fibrosarcoma cells, and CT-26 colon cancer cells; 3) immortalized mouse lung cell lines and mouse endothelial cell lines; and 4) primary human cell lines including umbilical endothelial cells (HUVEC, PromoCell, Heidelberg, Germany), primary bone marrow mesenchymal stem cells (HuMSC, PromoCell), primary human mammary epithelial cells (HuBrEC, Lonza, Walkersville, Md.), primary human prostate epithelial cells (HuPrEC, Lonza), and primary mouse spleen lymphocytes (isolated in this laboratory), and primary mouse bone marrow stromal cells (isolated in this laboratory). PCNA-I1 and PCNA-I2 were either provided by the University of Cincinnati Drug Discovery Center (UC-DDC, Cincinnati, Ohio) or were purchased from Chembridge Co (San Diego, Calif.), ChemDiv (San Diego, Calif.), and/or Sigma-Aldrich (St Louis, Mo.).
Growth inhibitory effects of the compounds were assessed by MTT staining as described previously by Dong et al. in In Vitro Model for Intrinsic Drug Resistance: Effects of Protein Kinase C Activators on the Chemosensitivity of Cultured Human Colon Cancer Cells; Mol. Pharmacol. 1991; 39: 563-9. […]
IC50 values were derived from growth inhibition curves. […] Inhibition of cell growth was calculated using the formula: growth inhibition (%)=(1−A570 of treated/A570 of control)×100. […] The fluorescence intensity was measured at 530/580 (excitation/emission) in the FLUOstar Omega microplate reader (BMG LABTECH, Cary, N.C.). […]

[5] = tested on: PC-3 cells; assay: Alamar blue assay, PC-3 cells as positive control; format: cell-based, Human; settings: FIG. 2(B)
Protocol: The effects of PCNA-I1 on growth of tumor cells versus primary cells was also investigated. Specifically, the effects of PCNA-1I on the growth of primary cells was investigated using primary culture of mouse lymphocytes. An Alamar blue assay was performed with PC-3 cells as a positive control. Freshly prepared mouse spleen lymphocytes were stimulated for 72 H with 2 μg/mL of concanavalin A. During the last 24 H, 20 μL/well of alamar blue was added. The fluorescence intensity was measured at 530/580 (excitation/emission).

[6] = tested on: LNCaP prostate cancer cells; assay: Growth inhibition by MTT staining, LNCaP; format: cell-based, Human; settings: 96 h, Table II, Human tumor cells, treated four days, mean of five to seven experiments, read-out: IC50 Values, LNCaP
Protocol: as §3
Growth inhibitory effects of the compounds were assessed by MTT staining as described previously by Dong et al. in In Vitro Model for Intrinsic Drug Resistance: Effects of Protein Kinase C Activators on the Chemosensitivity of Cultured Human Colon Cancer Cells; Mol. Pharmacol. 1991; 39: 563-9. Briefly, cells were cultured and treated in their respective media. Cells were plated into 96-well plates at 1000 to 5000 cells/well. After an overnight incubation, the cells were treated for four days with various concentrations (up to 10 μM) of PCNA-I1 or PCNA-I2. The live cells were stained with MTT and cells in exponential growth phase were harvested by a one to three minute treatment with a 0.25% trypsin-0.02% EDTA solution. Flasks were tapped to detach the cells, RPMI 1640-10% FBS was added, and the cell suspensions were gently agitated to produce single-cell suspensions. The cell suspensions were washed and resuspended in medium with supplements specified for different cells. Only suspensions of single cells with a viability exceeding 95% (ascertained by trypan blue exclusion) were used.
IC50 values were derived from growth inhibition curves. Data for tumor cells are a mean of five to seven experiments. Data for primary cells are a mean of three experiments. […] Inhibition of cell growth was calculated using the formula: growth inhibition (%)=(1−A570 of treated/A570 of control)×100. IC50 (the concentration that inhibited cell growth by 50%) values were also determined. For evaluation of lymphocyte growth in suspension, an Alamar blue assay was performed, wherein freshly prepared mouse spleen lymphocytes were stimulated for 72 H with 2 ug/mL concanavalin A (Sigma Chemicals, St. Louis, […].). During the last 24 H, 20 μl/well of Alamar blue (Invitrogen, Carlsbad, Calif.) was added. The fluorescence intensity was measured at 530/580 (excitation/emission) in the FLUOstar Omega microplate reader (BMG LABTECH, Cary, N.C.).
Growth inhibitory effects of PCNA-I3, PCNA-I4, PCNA-I6, PCNA-I7, PCNA-I8, PCNA-I9 and PCNA-I10 were assessed in human prostate cancer cell lines. Specifically, growth inhibitory effects of PCNA-I3, PCNA-I4, PCNA-I6, PCNA-I7, PCNA-I8, PCNA-I9 and PCNA-I10 were assessed using MTT staining in LNCaP and PC-3 cells. […]

[7] = tested on: UV2237 fibrosarcoma cells; assay: Growth inhibition by MTT staining, UV2237; format: cell-based; settings: 96 h, Mouse, treated four days
Protocol: as §1, §2

[8] = tested on: T47D breast cancer cells; assay: Growth inhibition by MTT staining, T47D; format: cell-based; settings: 96 h, Human tumor cells, treated four days
Protocol: as §1, §2

Work on Cc1ccsc1C(=O)N/N=C/c1ccc2ccccc2c1O [PCNA-I1] yielded an IC50 ([1]; PC-3, 96 h, MTT, four days, single agent, read-out: IC50 doses for cell growth inhibition, PC-3, agent alone) of 240 nM, an IC50 ([1]; PC-3, combined with 0.3 μM cisplatin, read-out: PCNA-I1 concentration giving 50% inhibition in combination, PC-3) of 80 nM and an IC50 [2] of 350 nM. The “Tumor eradication, LNCaP model” value ([3]; 50 mg/kg i.p., three times/week) was “eradication of LNCaP tumors in some mice”, the “Tumor growth, LNCaP model” value ([3]; 10 or 50 mg/kg i.p., three times/week) was “retarded tumor growth” and the “PCNA expression in tumor (immunohistochemistry)” value ([3]; LNCaP tumor, 10 mg/kg three times/week, FIG. 22) was “reduced PCNA expression”. The IC50 ([4]; Mouse, Blood Vessel, normal cells, read-out: IC50 Values, Lung Endothelial Cells (immortal)) was 1160 nM, the “Growth stimulation, Mu-Lu-Endo” value ([4]; FIG. 2(C)) was “Moderate growth stimulation” and the IC50 ([4]; Mus musculus, FIG. 2(C), read-out: IC50, Mu-Lu-Endo) was 1160 nM. For the same compound, the “Susceptibility of PC-3 cells relative to lymphocytes” value [5] was “approximately three times more susceptible than lymphocytes”, the IC50 ([5]; Homo sapiens, PC-3, Alamar blue assay) was 482 nM and the IC50 [6] was 140 nM. It also gave an IC50 [7] of 250 nM and an IC50 [8] of 150 nM.
